Experimental data reported in PubChem BioAssay (NCI).
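Following 48 hours of exposure in 96-well plates, responses at five concentrations were used to interpolate endpoints linearly. Abbreviation: GI50, concentration required for 50% inhibition of growth. TGI marks complete inhibition of growth.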

Columns and labels:
Experiment in all cases: NCI-60 cell line screen, 48 h
OVCAR-4 ovarian = test system: OVCAR-4 ovarian
SK-MEL-28 melanoma = test system: SK-MEL-28 melanoma
TK-10 renal = test system: TK-10 renal
SNB-75 CNS = test system: SNB-75 CNS
IGROV1 ovarian = test system: IGROV1 ovarian
NCI-H522 lung = test system: NCI-H522 lung
EKVX NSCLC = test system: EKVX NSCLC
U251 CNS = test system: U251 CNS
SF-295 CNS = test system: SF-295 CNS
NCI-H23 lung = test system: NCI-H23 lung

Compound	GI50 (OVCAR-4 ovarian) [µM]	TGI (OVCAR-4 ovarian) [µM]	GI50 (SK-MEL-28 melanoma) [µM]	TGI (SK-MEL-28 melanoma) [µM]	GI50 (TK-10 renal) [µM]	TGI (TK-10 renal) [µM]	GI50 (SNB-75 CNS) [µM]	TGI (SNB-75 CNS) [µM]	GI50 (IGROV1 ovarian) [µM]	TGI (IGROV1 ovarian) [µM]	GI50 (NCI-H522 lung) [µM]	TGI (NCI-H522 lung) [µM]	GI50 (EKVX NSCLC) [µM]	TGI (EKVX NSCLC) [µM]	GI50 (U251 CNS) [µM]	TGI (U251 CNS) [µM]	GI50 (SF-295 CNS) [µM]	TGI (SF-295 CNS) [µM]	GI50 (NCI-H23 lung) [µM]	TGI (NCI-H23 lung) [µM]
CN1CCN(Cc2ccc(NC(=O)c3cccc(C#Cc4c(N)ncc5ccc(F)cc45)c3)cc2C(F)(F)F)CC1	0.511	1.77	0.79	1.53	1.14	2.35	0.257	0.866	0.597	1.4	0.756	1.53	0.879	1.95	0.833	1.6	0.917	1.78	0.865	1.67
O=S(=O)(NCCNc1cc(-c2cn(-c3ccccc3)nc2-c2cccc(O)c2)ccn1)c1ccc(Br)cc1	2.32	13.7	2.09	4.78	2.78	9.65	2.03	6.94	3.33	15.5	2.02	4.69	2.76	19.1	2.21	5.64	1.88	3.94	2.7	11.4
Nc1nc(CC2(O)CCCCC2)cc(-c2ccccc2)n1		> 76.8		> 100		> 100		98.1		> 100		> 100		> 100		> 100		> 77.3		> 66.4
N/C(=N\N=C\c1ccc(O)c(O)c1)NO		> 100		> 100		> 100		> 100		> 100		> 100		> 100		> 100		> 100		> 100
CCN(CC)CCOc1ccc(Cc2ccccc2)cc1	33.5	> 100	38.5	> 100	23.3	92.9	19	94.9	24	74.6	18.4	> 100	26.4	> 100	26.5	> 100	13.2	31.4	33.4	> 100
O=C(O)CNC(=O)C1NC(C(F)(F)F)(C(F)(F)F)OC1(C(F)(F)F)C(F)(F)F (stereo not given)		> 100		> 100		> 100		> 100		> 100		> 100		> 100		> 100		> 100		> 100
CC(C)=CCC/C(C)=C/CC/C(C)=C/C1CCC(=O)C1(C)C (stereo not given)		66		54		> 100		81.9		39.4		29		42.4		32.7		33		41.1
[N-]=[N+]=NC1C2CC3CC(C2)CC1C3 (stereo not given)		> 100		> 100		> 100		> 100		> 100		> 100		> 100		> 100		> 100		> 100
COc1ccc(C(=O)c2cc(C)c(OC)c(C)c2)c(OC)c1N(C(=O)CCl)C(=O)CCl	0.719	> 67	0.168	25.3	13.4	> 100	0.0274	27.3	0.0738	3.83	0.0349	0.906	0.0792	69	0.0509	20.3	0.0321	15.5	0.0696	14.2
CN[C@H]1CC[C@]23C[C@]24CC[C@]2(C)[C@@H]([C@H](C)N(C)C)CC[C@@]2(C)[C@@H]4CC[C@H]3C1(C)C		53.7		25.8		39.3		33.2		35.1		34.1		37.9		27.6		31.2		35.6
C[C@H](C(O)CC(=O)C(C)(C)O)[C@H]1CC[C@@]2(C)[C@@H]3CC[C@H]4C(C)(C)[C@@H](OC5OC(COC6OC(CO)C(O)C(O)C6O)C(O)C(O)C5O)CC[C@]4(C)C3=CC[C@]12C (stereo not given in full)		> 100		> 100		> 100		> 100		> 100		> 100		> 100		> 100		> 100		> 100
COc1c(Cl)[c]([Hg][O]C(C)=O)c(NCC(C)=O)c(OC)[c]1[Hg][O]C(C)=O	20	79.7	13.3	26.2	14.3	27.7	13.9	32.5	15.6	31.6	1.37	4	27.2	65.2	10	21.9	20.2	45.2	11.2	28.8
COC1C(O)CC(OC2CC(OC3CC(O[C@@H]4C(=O)c5c(cc6cc(OC7CC(OC8CC(O)C(O)C(C)O8)C(O)C(C)O7)c(C)c(O)c6c5O)CC4[C@H](OC)[C@@H](O)C(C)=O)OC(C)C3O)OC(C)C2O)OC1C (stereo not given in full)	< 0.0282	> 23.9	0.014	0.396	0.0257	> 33.3	0.0184	3.32	0.0197	> 33.3	0.016	0.0648	0.014	> 33.3	0.0125	> 33.3	0.00752	> 33.3	0.00333	1.12
CCN(CC)CCC(=O)N1C/C(=C/c2ccccc2)C(=O)/C(=C\c2ccccc2)C1		6.04		4.16		18.4		12.5		9.69		2.29		13.6		1.9		5.15		3.91
CCN(CC)c1ccc(/C=N/NC(=O)c2ccccc2Nc2ccnc(C(F)(F)F)c2)c(O)c1	0.0856	> 100	0.243	> 100	0.365	> 67.4	0.41	> 100	0.0747	71.4	0.287	3.55	0.101	4.35	0.103	> 44.7	0.184	6.27	0.528	> 100
C=C(C)[C@@H]1CC[C@]2(CN)CC[C@]3(C)[C@H](CC[C@@H]4[C@@]5(C)CCC(N)[C@@](C)(CO)[C@@H]5CC[C@]43C)[C@@H]12 (stereo not given in full)	1.64	3.26	1.9	3.37	1.75	3.22	1.62	3.07	1.92	3.65	1.86	3.5	1.55	3.05	1.61	3.01	1.76	3.23	1.96	3.61
CCCC(=O)Nc1c(I)cc(I)c(CC(CC)C(=O)O)c1I (stereo not given)	> 100	> 100	> 100	> 100	> 100	> 100	> 100	> 100	> 100	> 100	> 100	> 100	> 100	> 100	> 100	> 100	> 100	> 100	> 100	> 100
